Marks after values point to notes of the source that are not given here.
System: naive female Sprague-Dawley rats
Assay: Cystometry test system on the conscious naive rat
Type: in vivo
Conditions: for BC bladder capacity (change relative to the preliminary value) / ICI inter-contraction interval (change relative to the preliminary value) / TP threshold pressure (change relative to the preliminary value): at maximum activity, mean of 3 miction cycles; for effect on bladder regulation (in words): summary of the cystometry results, i.v.
Description: Cystometric investigations were carried out on naive female Sprague-Dawley rats according to the method of Ishizuka et al. ((1997), Naunyn-Schmiedeberg's Arch. Pharmacol. 355: 787-793). Three days after the implantation of bladder and venous catheters, the animals, which were free to move, were studied in the conscious state. The bladder catheter was attached to a pressure transducer and an injection pump. The animals were placed in metabolic cages which allowed the volume of urine to be measured. Physiological saline solution was infused into the emptied bladder (10 ml/h) and the bladder pressure and miction volume were recorded continuously. After a stabilization phase, a 20-minute phase characterised by normal, reproducible miction cycles was recorded. The following parameters, inter alia, were determined: • threshold pressure (TP, bladder pressure immediately before miction), • bladder capacity (BC, residual volume after previous miction plus volume of solution infused during the filling phase), • inter-contraction interval (ICI, the time interval between mictions).
An increase in the threshold pressure (TP) indicates an important therapeutic activity in one of the indications according to the invention. The inter-contraction interval (ICI) is also an important parameter for measuring the physiological effectiveness of a substance in the treatment of urinary incontinence, as is the bladder capacity (BC). Because the causes of the symptoms of these disorders are highly heterogeneous, it is not necessary for all three parameters to be influenced positively in order for effectiveness to exist. It is, therefore, entirely satisfactory for a positive effect to be determined in only one of these parameters in order to be usable in urinary incontinence or increased urinary urgency.
After three reproducible miction cycles had been recorded as the preliminary value, the test substances 1 (1.0 mg/kg), 2 (0.1; 0.3 and 0.5 mg/kg), 21 (0.5 mg/kg) and 7 (0.3 mg/kg) were administered i.v. in the vehicle=0.9% NaCl and the effect on the cystometric parameters was recorded for 90 to 120 minutes. At the maximum activity, the mean of 3 miction cycles was determined and indicated as the percentage change relative to the preliminary value (Table 1).

SMILES	BC bladder capacity (change relative to the preliminary value) (0.1 mg/kg i.v.)	ICI inter-contraction interval (change relative to the preliminary value) (0.1 mg/kg i.v.)	TP threshold pressure (change relative to the preliminary value) (0.1 mg/kg i.v.)	BC bladder capacity (change relative to the preliminary value) (0.3 mg/kg i.v.)	ICI inter-contraction interval (change relative to the preliminary value) (0.3 mg/kg i.v.)	TP threshold pressure (change relative to the preliminary value) (0.3 mg/kg i.v.)	BC bladder capacity (change relative to the preliminary value) (0.5 mg/kg i.v.)	ICI inter-contraction interval (change relative to the preliminary value) (0.5 mg/kg i.v.)	TP threshold pressure (change relative to the preliminary value) (0.5 mg/kg i.v.)	effect on bladder regulation (in words)	BC bladder capacity (change relative to the preliminary value) (1.0 mg/kg i.v.)	ICI inter-contraction interval (change relative to the preliminary value) (1.0 mg/kg i.v.)	TP threshold pressure (change relative to the preliminary value) (1.0 mg/kg i.v.)
CC[C@](O)(c1cccc(OC)c1)[C@H](C)CN(C)C.Cl [Compound 2, (+)-(2R,3R)-1-Dimethylamino-3-(3-methoxy-phenyl)-2-methyl-pentan-3-ol, hydrochloride]	+7.8%	+15.6%	+28.5%**	+33%*	+28%*	+122%**	+20.6%*	+28.6%**	+77.5%**	very effective	–	–	–
CC[C@](O)(c1cccc(OC)c1)[C@H](C)CN(C)C.Cl (racemic) [Compound 1, (2RS,3RS)-1-Dimethylamino-3-(3-methoxy-phenyl)-2-methyl-pentan-3-ol, hydrochloride]	–	–	–	–	–	–	–	–	–	–	+31%***	+42%	+94%**
CC[C@@](O)(c1cccc(OC)c1)[C@@H](C)CN(C)C.Cl [Compound 21, (−)-(2S,3S)-1-Dimethylamino-3-(3-methoxy-phenyl)-2-methyl-pentan-3-ol, hydrochloride]	–	–	–	–	–	–	+3%	+10%	−1.1%	does not make such a strong contribution to the action	–	–	–
CCC(O)(c1cccc(O)c1)C(C)CN(C)C.Cl (racemic) [Compound 7, (2RS,3RS)-3-(3-Dimethylamino-1-ethyl-1-hydroxy-2-methyl-propyl)-phenol, hydrochloride]	–	–	–	+32%*	+28%*	+95%**	–	–	–	–	–	–	–

Reference: US20050137145A1, “Metabolites of 1-dimethylamino-3-(3-methoxy-phenyl)-2-methyl-pentan-3-ol and their use in the treatment of urinary incontinence” (Gruenenthal GmbH, priority 2002, published 2005)
